Like-named read-outs stand apart in the source and are kept apart here.
Legend:
MCL-1 = assay: In vitro transcription-translation (IVTT) assay, MCL-1 reporter; type: biochemical; conditions: HeLa S3 lysate, sfGFP/mCherry ratio
Summary of the method: (§1)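 Reporter: mCherry, P2A, then 3×FLAG-target peptide-sfGFP fusion, IRES-initiated; HeLa S3 lysate IVTT; cpd dilutions 30 μM−0.1 μM half-log in 100% DMSO (dilution-plate conc); DNA added last; 2 h, 30° C; PBS quench.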

CCNE1 = assay: In vitro transcription-translation (IVTT) assay, CCNE1 reporter; type: biochemical; conditions: HeLa S3 lysate, sfGFP/mCherry ratio
Method: In vitro transcription-translation assay setup: Each assay includes a master mix containing lysate and shared components, a 96-well plate containing compound titrations for testing, a 96-well DNA plate with reporter constructs to be tested, 96-well skirted PCR plates, and 96-well flat-bottom, black, fluorescent assay plates. Reaction materials setup: (A) Master mix—15 mL conical tube (3 mL of HeLa S3 Lysate described above; 0.6 mL of ThermoFisher Accessory Proteins (#88882); 1.2 ml of ThermoFisher Reaction Mix (#88882); 0.54 mL of nuclease-free Water); (B) 96-Well Master Mix+Compound Plate (Half-log dilutions (30 μM−0.1 μM) of 4 compounds of interest are prepared in 100% DMSO); 96-Well DNA Plate (Five DNA constructs are plated into single columns within the plate. Row 1 of the column contains nuclease free H2O, all other wells contain 110 ng/μL plasmid DNA). Reactions are started by mixing 155 μL of master mix and 3.5 μL of compound serial dilutions, then 9.1 μL of master mix+compound mixture is aliquoted across 5 96-well plates. Reactions begin with final addition of 2 μL of DNA for a 11.1 μL reaction volume in each well. The entire plate is sealed, and incubated for 2 hrs at 30° C. After 2 hrs, quench the assay using 45 μL of PBS, and transfer 50 μL to a flat-bottom black microplate Quantify the sfGFP and mCherry signals from each well on each plate, taking 3 reads of each plate, and perform data analysis below.
In vitro transcription-translation assay data analysis: Each plate is read three times in channels for both sfGFP and mCherry signals. The average signal across these 3 reads is then calculated for further analysis. Control wells containing no DNA reporter are subtracted from reporter wells in the same column to remove auto-fluorescence of the lysate. Then, the ratio of sfGFP/mCherry is calculated per well, and these ratios are averaged across the triplicate experiments on the same plate. Finally, the ratio of each titration concentration is normalized to the no drug control to create the normalized stalling metric. The error on this measurement is determined by propagating error through the averaging and normalization steps. Values are plotted and fit for IC50 determination for each test sequence and titration of compound.

MYC = assay: In vitro transcription-translation (IVTT) assay, MYC reporter; type: biochemical; conditions: HeLa S3 lysate, 2 hrs at 30° C.
Summary of the method: as §1

HEK 293T = assay: Cell viability (CellTiter-Fluor), HEK 293T; type: cell-based; conditions: Homo sapiens, 24-72 hrs
Method: Count and dispense 2,000-10,000 cells per well (100 μL volume) in black 96-well tissue culture microplate and let cells adhere overnight. Add compound dissolved in 100% DMSO to each well as needed and incubate cells in standard culture conditions for 24-72 hrs. Final DMSO concentration in each well should be 0.1-0.5%. At the desired time point, gently aspirate compound containing media and replace with PBS to wash. Repeat wash step for 2 total washes. Remove PBS and add 100 μL CellTiter-Fluor reagent (Promega) reagent to each well. Seal plate and incubate 1 hr at room temperature with orbital shaking. Analyze fluorescence using plate reader to quantify viable cells compared with vehicle (DMSO) control.

CCND1 = assay: In vitro transcription-translation (IVTT) assay, CCND1 reporter; type: biochemical; conditions: HeLa S3 lysate, sfGFP/mCherry ratio, 2 hrs at 30° C.
Summary of the method: as §1

BCL-2 = assay: In vitro transcription-translation (IVTT) assay, BCL-2 reporter; type: biochemical; conditions: HeLa S3 lysate, sfGFP/mCherry ratio, 2 hrs at 30° C.
From the text: All reporter constructs have been cloned into the pT7CFE1-CHis plasmid (ThermoFisher #88860) using Gibson assembly procedures (NEB #E2611L). The parental pT7CFE1-CHis plasmid contains an EMCV IRES at the 5′UTR for translation initiation, a multiple-cloning site (MCS) for gene insertion, an optional C-terminal His-epitope tag, and polyA sequence in the 3′UTR to regulate mRNA stability. All reporters are designed to be inserted at the MCS to include a red fluorescent protein (mCherry), P2A self-cleaving peptide which releases the preceding mCherry protein product, and a fusion open reading frame containing a 3×FLAG epitope, a peptide sequence of interest (TEST), and green fluorescent protein (sfGFP).
Construct Plasmid Preparation: All plasmids are isolated from MACH1 cells (ThermoFisher) grown overnight in ampicillin-containing luria broth, and purified using ZymoPure Express Plasmid Midiprep Kit (Zymo Research). Constructs are sequenced verified and diluted to a working concentration of 110 ng/μL.
HeLa S3 Lysate Preparation: HeLa S3 cell pellets are acquired from Ipracell/Ipratech (Belgium) and shipped as 4 mL frozen cell pellets on dry ice for storage at −80° C. until use. The procedure for lysate preparation is as follows. Prepare 1× Lysis Buffer, cold and stored on ice:
Each preparation takes 8 cell pellets (4 ml packed volume each, approximately 1.0×10^9 cells per pellet). Thaw cell pellets from −80° C. on ice for 90 mins. Lay pellets horizontally on top of the ice and rotate every 30 mins to ensure even thawing. Once thawed, add 4 mL of cold lysis buffer to each pellet, and using a serological pipet, gently pipet up and down to break up clumps. Incubate resuspended cells in ice for an additional 30 mins (plunged into ice). During 30 min incubation, rinse and RNase-zap (Ambion) glass dounces (use loose pestle “A”), gently dry and place on ice until needed. Prepare RNase-free Eppendorf tubes for spinning and for batch storage. Add batch labels to 1.5-1.7 mL RNase-free microcentrifuge tubes (labeling scheme below). Each batch will have an extra 1.5-1.7 mL RNase-free microcentrifuge tube for 40 μL of lysate, label the top of this tube (labeling scheme below). After 30 min incubation, transfer all 8 mL of cell pellet to dounce. Cell lysis is complete after douncing 100 times. Aliquot cell lysis into 1.5-1.7 mL temporary-microcentrifuge tubes. Place tubes in centrifuge with “fins” out, and spin at 1,200×g for 5 mins. After the first spin use a 1 mL pipet to resuspend each tube and repeat spin. This acts as an additional lysis step, is more vigorous and increases lysate yield. During second spin get liquid N2 and a fresh conical tube on ice. After spin is complete, transfer supernatant (lysate) from microcentrifuge tubes into the 50 mL conical tube and keep on ice. Repeat steps 10-14 for all other cell pellets until completed. Once all cell lysate has been transferred to the 50 mL conical tube pipet to mix so the solution is homogenous. Transfer 1 mL of lysate into batch-labeled microcentrifuge tubes and flash freeze in liquid nitrogen. Be sure to pipet up and down to mix throughout transfer step. Place all tubes in the […] for long-term storage.
In vitro transcription-translation assay setup: Each assay includes a master mix containing lysate and shared components, a 96-well plate containing compound titrations for testing, a 96-well DNA plate with reporter constructs to be tested, 96-well skirted PCR plates, and 96-well flat-bottom, black, fluorescent assay plates. […]

[1] = IVTT assay, read-out: MCL1 IC50
[2] = IVTT assay, MYC reporter, normalized sfGFP/mCherry ratio, half-log dilutions 30 μM-0.1 μM

| SMILES | IC50 (MCL-1; [1]) [µM] | IC50 (CCNE1) [µM] | IC50 (MCL-1; 2 hrs at 30° C.) [µM] | IC50 (MYC; sfGFP/mCherry ratio) [µM] | IC50 (CCND1) [µM] | IC50 (BCL-2) [µM] | IC50 (MYC; [2]) [µM] | IC50 (HEK 293T) [µM] |
| --- | --- | --- | --- | --- | --- | --- | --- | --- |
| O=C(NCc1cccc2c1CNC2)O[C@@H]1[C@@H](O)CN[C@@H]1Cc1ccc(C(F)F)cc1 [V193139, (2R,3S,4S)-2-(4-(difluoromethyl)benzyl)-4-hydroxypyrrolidin-3-yl (isoindolin-4-ylmethyl)carbamate] | < 10 | < 10 |  |  |  |  | < 10 |  |
| O=C(NCC[C@@H]1CCNC1)O[C@@H]1[C@@H](O)CN[C@@H]1Cc1ccc(-c2cnn(C(F)F)c2)cc1 [V193081, (2R,3S,4S)-2-(4-(1-(difluoromethyl)-1H-pyrazol-4-yl)benzyl)-4-hydroxypyrrolidin-3-yl (2-((S)-pyrrolidin-3-yl)ethyl)carbamate] | < 10 | < 10 |  |  |  |  | < 10 |  |
| O=C(NCC[C@@H]1CCN1)O[C@@H]1[C@@H](O)CN[C@@H]1Cc1ccc(C(F)F)cc1 [V193008, (2R,3S,4S)-2-{[4-(difluoromethyl)phenyl]methyl}-4-hydroxypyrrolidin-3-yl N-{2-[(2S)-azetidin-2-yl]ethyl}carbamate] | < 10 | < 10 |  |  |  |  | < 10 |  |
| COc1ccc(C[C@H]2NC[C@H](O)[C@H]2OC(=O)NCCNc2cc[nH]n2)cc1 [V187827, (2R,3S,4S)-4-hydroxy-2-[(4-methoxyphenyl)methyl]pyrrolidin-3-yl N-[2-(1H-pyrazol-3-ylamino)ethyl]carbamate] |  |  | < 10 | < 10 | < 10 | 10 to 20 |  | ≥ 4 |
| O=C(NCc1cnsc1)O[C@@H]1[C@@H](O)CN[C@@H]1Cc1ccc(C(F)F)cc1 [V192929, (2R,3S,4S)-2-(4-(difluoromethyl)benzyl)-4-hydroxypyrrolidin-3-yl (isothiazol-4-ylmethyl)carbamate] | < 10 | < 10 |  |  |  |  | < 10 |  |
| COc1ccc(C[C@H]2NC[C@H](O)[C@H]2OC(=O)NCCc2nc[nH]c2C)cc1 [V187823, (2R,3S,4S)-4-hydroxy-2-[(4-methoxyphenyl)methyl]pyrrolidin-3-yl N-[2-(5-methyl-1H-imidazol-4-yl)ethyl]carbamate] |  |  | < 10 | < 10 | 10 to 20 | 10 to 20 |  | ≥ 4 |
| O=C(NCc1cccc(F)c1)O[C@@H]1[C@@H](O)CN[C@@H]1Cc1ccc(-c2cc(C(F)F)cs2)cc1 [V193142, (2R,3S,4S)-2-(4-(4-(difluoromethyl)thiophen-2-yl)benzyl)-4-hydroxypyrrolidin-3-yl (3-fluorobenzyl)carbamate] | < 10 | 10 to 20 |  |  |  |  | < 10 |  |
| O=C(NCc1cccc(C2CNC2)c1)O[C@@H]1[C@@H](O)CN[C@@H]1Cc1ccc(-c2cc(C(F)F)cs2)cc1 [V193243, (2R,3S,4S)-2-(4-(4-(difluoromethyl)thiophen-2-yl)benzyl)-4-hydroxypyrrolidin-3-yl (3-(azetidin-3-yl)benzyl)carbamate] | < 10 | < 10 |  |  |  |  | < 10 |  |

The next lines start with results.

| IC50 (MCL-1; [1]) [µM] | IC50 (CCNE1) [µM] | IC50 (MCL-1; 2 hrs at 30° C.) [µM] | IC50 (MYC; sfGFP/mCherry ratio) [µM] | IC50 (CCND1) [µM] | IC50 (BCL-2) [µM] | SMILES | IC50 (MYC; [2]) [µM] | IC50 (HEK 293T) [µM] |
| --- | --- | --- | --- | --- | --- | --- | --- | --- |
| < 10 | < 10 |  |  |  |  | O=C(NCCc1cccc(F)c1)O[C@@H]1[C@@H](O)CN[C@@H]1Cc1ccc(-c2cnco2)cc1 [V193069, (2R,3S,4S)-4-hydroxy-2-(4-(oxazol-5-yl)benzyl)pyrrolidin-3-yl (3-fluorophenethyl)carbamate] | < 10 |  |
| < 10 | < 10 |  |  |  |  | O=C(NCCOC(F)(F)F)O[C@@H]1[C@@H](O)CN[C@@H]1Cc1ccc(C(F)F)cc1 [V192930, (2R,3S,4S)-2-(4-(difluoromethyl)benzyl)-4-hydroxypyrrolidin-3-yl (2-(trifluoromethoxy)ethyl)carbamate] | < 10 |  |
| < 10 | < 10 |  |  |  |  | O=C(NCC[C@H]1CCCCNC1)O[C@@H]1[C@@H](O)CN[C@@H]1Cc1ccc(-c2cnco2)cc1 [V193012, (2R,3S,4S)-4-hydroxy-2-(4-(oxazol-5-yl)benzyl)pyrrolidin-3-yl (2-((R)-azepan-3-yl)ethyl)carbamate] | < 10 |  |
| < 10 | < 10 |  |  |  |  | O=C(NCCOC(F)F)O[C@@H]1[C@@H](O)CN[C@@H]1Cc1ccc(-c2cnco2)cc1 [V193066, (2R,3S,4S)-4-hydroxy-2-(4-(oxazol-5-yl)benzyl)pyrrolidin-3-yl (2-(difluoromethoxy)ethyl)carbamate] | < 10 |  |
| < 10 | < 10 |  |  |  |  | O=C(NCC[C@@H]1CCN1)O[C@@H]1[C@@H](O)CN[C@@H]1Cc1ccc(OC(F)F)cc1 [V192938, (2R,3S,4S)-2-{[4-(difluoromethoxy)phenyl]methyl}-4-hydroxypyrrolidin-3-yl N-{2-[(2S)-azetidin-2-yl]ethyl}carbamate] | < 10 |  |
| < 10 | < 10 |  |  |  |  | O=C(NCc1cnn(C(F)F)c1)O[C@@H]1[C@@H](O)CN[C@@H]1Cc1ccc(-c2cnco2)cc1 [V193078, (2R,3S,4S)-4-hydroxy-2-(4-(oxazol-5-yl)benzyl)pyrrolidin-3-yl ((1-(difluoromethyl)-1H-pyrazol-4-yl)methyl)carbamate] | < 10 |  |
| < 10 | < 10 |  |  |  |  | O=C(NCC[C@H]1CC2(CC2)CN1)O[C@@H]1[C@@H](O)CN[C@@H]1Cc1ccc(-c2cnco2)cc1 [V193018, (2R,3S,4S)-4-hydroxy-2-(4-(oxazol-5-yl)benzyl)pyrrolidin-3-yl (2-((R)-5-azaspiro[2.4]heptan-6-yl)ethyl)carbamate] | < 10 |  |

Source: patent US20250129021A1, “SMALL MOLECULE PROTEIN SYNTHESIS MODULATORS” (Interdict Bio, Inc., priority 2023, published 2025)
